{"source": "paper PMC9181987", "about": "“Disclosing the Potential of Fluorinated Ionic Liquids as Interferon-Alpha 2b Delivery Systems” (Nanomaterials, 2022)", "key": {"[1]": {"test": "Dynamic light scattering: aggregate size and polydispersity index", "assay_type": "physicochemical", "conditions": "150 mM NaH2PO4, 25°C", "protocol": "These concentrations were chosen to comprise two different aggregates of each FIL, above the 1st CAC and the 3rd CAC. […] Therefore, 20 μL was transferred into a quartz cell of 10 mm pathlength and measured at 25 °C.\nMoreover, the polydispersity index (PdI) was obtained by DLS which determines the heterogeneity of the sample in the function of the size."}, "[2]": {"test": "Contact angle goniometry breakpoints", "assay_type": "physicochemical", "conditions": "25°C", "protocol": "(§1) The force tensiometer is equipped with a platinum Du Noüy ring to surface tension measurement and a thermostatic vessel connected to a bath circulator (RW-0535G, Lab. Companion, Daejeon, Republic of Korea) in order to keep the temperature of the solution constant. Next, 15 mL of each sample was placed in a glass container and left to equilibrate in the thermostatic vessel. After temperature equilibration, the surface tension was measured. The equipment is a standalone-controlled instrument, and the calibration was conducted with a calibration weight with a known mass before measuring the samples. Each sample was measured five times, and the reported surface tension was the average value with an uncertainty of ±0.22 mN/m. Each solution was then assessed by a KSV’s contact angle goniometer CAM100 (Biolin Scientific, Gothenburg, Sweden). A drop of each solution was placed on a Teflon surface with a Hamilton syringe. This equipment is a PC-controlled instrument, and the tilt was set to 0 degrees at the base of the drop and was recorded for 10 frames with an interval of 1 s. The contact angle was calculated for the left and right sides of the drop and the mean value was the resulting contact angle. At least five different drops of each solution were recorded, and the reported contact angle was the resulting average with an uncertainty of ±5%."}, "[3]": {"test": "Tensiometry (Du Noüy ring): surface tension breakpoints, surface properties, critical packing parameters", "assay_type": "physicochemical", "conditions": "25°C", "protocol": "as §1\nAfter the evaluation of the CACs, other properties can be taken from the surface tension data. […] The n parameter is deduced from the degree of ionization of aggregates, α, as n = 2 − α, determined from the conductivity profile of the FIL and assumed to be the same for the surface layer in ionic surfactants.\nFrom the Γmax and Avogadro’s number (NA) the minimum area occupied per surfactant molecule at the air/water interface, Amim, can be obtained as set by:(4) Amin=10^18/NAΓmax\nIn addition, the parameter that explains the efficacy of a surfactant to reduce the surface tension, ΠCAC, was determined, expressing the maximum surface tension diminution resulting from the dissolution of surfactant molecules. This parameter is determined by the surface tension of the solvent ( γ0 ) and the γCAC , as follows:(5) ΠCAC=γ0−γCAC\nThem, from ΠCAC, the standard free energy of adsorption, ΔGad0 , was calculated using the following equation [55]:(6) ΔGad0=ΔGagg0−ΠCAC/Γmax\nFinally, aiming to disclose information on the self-aggregation process and the shape of the aggregates, the critical packing parameter, P, was also calculated in this work, as follows:(7) P=V0/Aminlc where V0 and lc are the volume occupied by the hydrophobic chains in the aggregate core and the critical chain length, respectively. The structure of the aggregates is defined as spherical when P ≤ 0.33, cylindrical for P ≤ 0.5, lamellar when P ≤ 1, and inverted for P > 1 [38]."}, "[4]": {"design": "method as in doi:10.5772/INTECHOPEN.96336, doi:10.1016/j.molliq.2022.119285, PMID 25580898", "conditions": "cited from earlier work"}, "IFN-α 2b": {"target": "T1, IFN-α 2b (Homo sapiens, UniProt P01563)", "T1 construct": "purchased Sigma-Aldrich SRP4595; host or cells: E. coli", "T1 sequence (P01563 24-188)": "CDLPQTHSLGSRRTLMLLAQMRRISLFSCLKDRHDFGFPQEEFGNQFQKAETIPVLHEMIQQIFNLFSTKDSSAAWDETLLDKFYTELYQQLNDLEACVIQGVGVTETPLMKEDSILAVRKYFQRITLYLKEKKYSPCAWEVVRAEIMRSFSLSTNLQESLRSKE", "test": "Intrinsic fluorescence spectroscopy of IFN-α 2b with FILs (λmax shift, Stern–Volmer quenching)", "assay_type": "binding", "protocol": "The concentrations were chosen to cover the range where the different aggregates of the FILs are formed. Samples, equilibrated for 30 min at room temperature, and 400 μL of each solution were transferred to a quartz cuvette of 10 mm pathlength and excited at 280 nm, collecting the fluorescence intensity in a wavelength range of 300 to 450 nm. The width of the excitation and emission slit was set to 5 nm for both cases. The spectra of FIL solutions (blanks) were discounted to the spectra of FIL + protein samples to avoid any possible effect of FIL concentration increment in the fluorescence intensity.\nA very well-known equation, the Stern–Volmer, was used to characterize the quenching occurring in this region. This equation characterizes the collisional quenching that can occur when the excited state of the fluorophore is disabled due to contact with another molecule (quencher), without chemical alteration. Therefore, the collisional quenching is described by:(11) F0/F=1+K[Q]=1+kqτ0[Q] where F0 and F are the fluorescence intensities of the fluorophore in the absence and presence of the quencher, respectively, K is the Stern–Volmer quenching constant, kq is the biomolecular quenching constant, τ0 is the unquenched lifetime, and [Q] is the quencher concentration. […] This value gives information on the sensitivity of the fluorophore to a quencher."}, "[5]": {"conditions": "5 μg/mL IFN-α 2b + 5 mM NaH2PO4 (pH=7.4), 1st breakpoint"}, "[6]": {"conditions": "5 μg/mL IFN-α 2b + 5 mM NaH2PO4 (pH=7.4), 2nd breakpoint"}, "[7]": {"conditions": "5 μg/mL IFN-α 2b + 5 mM NaH2PO4 (pH=7.4), 3rd breakpoint"}, "[8]": {"conditions": "5 μg/mL IFN-α 2b + 5 mM NaH2PO4 (pH=7.4), 4th breakpoint"}}}
{"smiles": "CCn1cc[n+](C)c1.O=S(=O)([O-])C(F)(F)C(F)(F)C(F)(F)C(F)(F)F", "note": "[[C2C1Im][C4F9SO3], 1-Ethyl-3-methylimidazolium perfluorobutanesulfonate]", "values": [{"measurement": "Polydispersity index (PdI)", "setting": "[1]; 29.3 mM FIL", "result": 1.000}, {"measurement": "Polydispersity index (PdI)", "setting": "[1]; 243.8 mM FIL", "result": 0.157}, {"measurement": "CAC (wFIL), goniometer", "setting": "[2]; [5]", "result": 0.0009}, {"measurement": "CAC, goniometer", "setting": "[2]; [5]", "result": 2.101, "unit": "mmol⸱kg-1"}, {"measurement": "CAC (wFIL), goniometer", "setting": "[2]; [6]", "result": 0.0030}, {"measurement": "CAC, goniometer", "setting": "[2]; [6]", "result": 7.288, "unit": "mmol⸱kg-1"}, {"measurement": "CAC (wFIL), goniometer", "setting": "[2]; [7]", "result": 0.0157}, {"measurement": "CAC, goniometer", "setting": "[2]; [7]", "result": 38.18, "unit": "mmol⸱kg-1"}, {"measurement": "CAC (wFIL), goniometer", "setting": "[2]; [8]", "result": 0.0430}, {"measurement": "CAC, goniometer", "setting": "[2]; [8]", "result": 104.7, "unit": "mmol⸱kg-1"}, {"measurement": "CAC (wFIL), goniometer", "setting": "[2]; 5 mM NaH2PO4 (pH=7.4)", "result": 0.0329}, {"measurement": "CAC, goniometer", "setting": "[2]; 5 mM NaH2PO4 (pH=7.4)", "result": 80.27, "unit": "mmol⸱kg-1"}, {"measurement": "CAC (wFIL), tensiometer", "setting": "[3]; [5]", "result": 0.0008}, {"measurement": "CAC, tensiometer", "setting": "[3]; [5]", "result": 1.963, "unit": "mmol⸱kg-1"}, {"measurement": "surface tension at CAC, γCAC", "setting": "[3]; [5]", "result": 51.4, "unit": "mN m-1"}, {"measurement": "CAC (wFIL), tensiometer", "setting": "[3]; [6]", "result": 0.0025}, {"measurement": "CAC, tensiometer", "setting": "[3]; [6]", "result": 6.105, "unit": "mmol⸱kg-1"}, {"measurement": "surface tension at CAC, γCAC", "setting": "[3]; [6]", "result": 48.2, "unit": "mN m-1"}, {"measurement": "CAC (wFIL), tensiometer", "setting": "[3]; [7]", "result": 0.0089}, {"measurement": "CAC, tensiometer", "setting": "[3]; [7]", "result": 21.61, "unit": "mmol⸱kg-1"}, {"measurement": "surface tension at CAC, γCAC", "setting": "[3]; [7]", "result": 38.3, "unit": "mN m-1"}, {"measurement": "10^6 Γmax, maximum surface excess concentration", "setting": "[3]; [8]", "result": 4.41, "unit": "mol m-2"}, {"measurement": "Amin, minimum area per surfactant molecule at the air/water interface", "setting": "[3]; [8]", "result": 0.38, "unit": "nm2"}, {"measurement": "CAC (wFIL), tensiometer", "setting": "[3]; [8]", "result": 0.0335}, {"measurement": "CAC, tensiometer", "setting": "[3]; [8]", "result": 81.59, "unit": "mmol⸱kg-1"}, {"measurement": "critical packing parameter Peq 8", "setting": "[3]; [8]", "result": 0.7439}, {"measurement": "critical packing parameter Peq 9", "setting": "[3]; [8]", "result": 0.7481}, {"measurement": "surface tension at CAC, γCAC", "setting": "[3]; [8]", "result": 24.3, "unit": "mN m-1"}, {"measurement": "ΔG0ad, standard free energy of adsorption", "setting": "[3]; [8]", "result": -7.734, "unit": "kcal/mol"}, {"measurement": "ΠCAC, efficacy to reduce the surface tension", "setting": "[3]; [8]", "result": 37.8, "unit": "mN m-1"}, {"measurement": "10^6 Γmax, maximum surface excess concentration", "setting": "[3]; 5 mM NaH2PO4 (pH=7.4)", "result": 3.26, "unit": "mol m-2"}, {"measurement": "Amin, minimum area per surfactant molecule at the air/water interface", "setting": "[3]; 5 mM NaH2PO4 (pH=7.4)", "result": 0.51, "unit": "nm2"}, {"measurement": "CAC (wFIL), tensiometer", "setting": "[3]; 5 mM NaH2PO4 (pH=7.4)", "result": 0.0330}, {"measurement": "CAC, tensiometer", "setting": "[3]; 5 mM NaH2PO4 (pH=7.4)", "result": 80.35, "unit": "mmol⸱kg-1"}, {"measurement": "critical packing parameter Peq 8", "setting": "[3]; 5 mM NaH2PO4 (pH=7.4)", "result": 0.550}, {"measurement": "critical packing parameter Peq 9", "setting": "[3]; 5 mM NaH2PO4 (pH=7.4)", "result": 0.553}, {"measurement": "surface tension at CAC, γCAC", "setting": "[3]; 5 mM NaH2PO4 (pH=7.4)", "result": 24.6, "unit": "mN m-1"}, {"measurement": "ΔG0ad, standard free energy of adsorption", "setting": "[3]; 5 mM NaH2PO4 (pH=7.4)", "result": -9.8, "unit": "kcal/mol"}, {"measurement": "ΠCAC, efficacy to reduce the surface tension", "setting": "[3]; 5 mM NaH2PO4 (pH=7.4)", "result": 46.4, "unit": "mN m-1"}, {"measurement": "miscibility in water", "setting": "[4]", "result": "full miscibility in water"}, {"measurement": "Stern–Volmer quenching constant K", "setting": "IFN-α 2b; IFN-α 2b 20 μg/mL, region ~14 mM to ~110 mM FIL, 5 mM NaH2PO4 pH 7.4, excitation 280 nm", "result": 0.0106, "unit": "mM⁻¹"}, {"measurement": "biomolecular quenching constant kq", "setting": "IFN-α 2b; from K and τ0 of IFN-α 2b", "result": "3.59e+09", "unit": "M⁻¹ s⁻¹"}]}
